Calls of active or inactive are those of the source. The calls are words filed in the database; no cut-off is given here.
Key:
MKN-45 [1] = test: In vivo inhibition of STAT3 in human MKN-45 cells xenografted in BALB/c nude mouse assessed as reduction in c-myc gene expression at 25 to 50 mg/kg, po qd administered for 5 weeks by Western blot analysis; type: functional, organism-based; settings: dose 25-50 mg/kg
Cytochrome P450 2C9 = Cytochrome P450 2C9 (Homo sapiens, UniProt P11712); test: Inhibition of CYP2C9 in human liver microsome; type: ADME, microsomes
MKN-45 [2] = test: In vivo inhibition of STAT3 phosphorylation at Tyr705 residue in human MKN-45 cells xenografted in BALB/c nude mouse at 25 to 50 mg/kg, po qd administered for 5 weeks by immunohistochemical analysis; type: functional, organism-based; settings: dose 25-50 mg/kg
[3] = target: Epidermal growth factor receptor (Homo sapiens, UniProt P00533); test: Inhibition of EGFR (unknown origin)
[4] = AUC (0 to t) in ICR mouse plasma at 1 mg/kg, iv measured up to 24 hrs by LC-MS/MS analysis; type: ADME, organism-based; parameters: dose 1 mg/kg, time < 24 hrs, route iv
MKN-45 [5] = test: Induction of apoptosis in human MKN-45 cells assessed as late apoptic cells 10 nM incubated for 48 hrs by FITC-annexin V/propidium iodide staining based flow cytometry (reference value: 17.9%); type: functional
[6] = Clearance in ICR mouse plasma at 1 mg/kg, iv measured up to 24 hrs by LC-MS/MS analysis; type: ADME, organism-based
[7] = target: T1, Signal transducer and activator of transcription 3 (Homo sapiens, UniProt P40763); test: Inhibition of STAT3 phosphorylation at Ser727 residue in human AGS cells upto 40 nM incubated upto 24 hrs by Western blotting analysis; type: cell-based
Cytochrome P450 3A4 = Cytochrome P450 3A4 (Homo sapiens, UniProt P08684); test: Inhibition of CYP3A4 in human liver microsome; type: ADME, microsomes
[8] = Inhibition of ATP production in human MKN-45 cells incubated for 20 to 24 hrs by ATP assay kit method; type: functional, cell-based
MGC-803 [9] = test: Potency index, ratio of IC50 for BBI608 to IC50 for test compound for antiproliferative activity against human MGC-803 cells assessed as reduction in cell viability incubated for 72 hrs by MTS assay; type: functional
AGS [10] = test: Induction of apoptosis in human AGS cells assessed as necrotic cells 5 nM incubated for 48 hrs by FITC-annexin V/propidium iodide staining based flow cytometry (reference value: 2.70%); type: functional
[11] = target: Tyrosine-protein kinase JAK2 (Homo sapiens, UniProt O60674); test: Inhibition of JAK2 (unknown origin)
MKN-45 [12] = test: Inhibition of colony formation in STAT3 knockdown human MKN-45 cells assessed as reduction in number of colonies incubated for 5 to 7 days by crystal violet staining based assay; type: functional, cell-based; settings: time 5-7 day
[13] = target: T1, Signal transducer and activator of transcription 3; test: Inhibition of STAT3 in human MKN-45 cells assessed as downregulation of cyclin D1 expression up to 40 nM by western blot analysis; type: cell-based; settings: time <= 24.0 hrs, TDE = time-dependent effect
[14] = target: T1, Signal transducer and activator of transcription 3; test: Inhibition of STAT3 phosphorylation at Tyr705 residue in human MKN-45 cells upto 40 nM incubated upto 24 hrs by Western blotting analysis; type: cell-based
[15] = target: T1, Signal transducer and activator of transcription 3; test: Binding affinity to human STAT3 (127 to 722 residues) assessed as dissociation constant by MST assay
[16] = target: T1, Signal transducer and activator of transcription 3; test: Inhibition of STAT3 in human MKN-45 cells assessed as downregulation of Survivin expression at 10 to 40 nM incubated for 24 hrs by RT-PCR analysis; type: cell-based; settings: dose 10-40 nM
MKN-45 [17] = test: Antitumor activity against human MKN-45 cells xenografted in BALB/c nude mouse assessed as reduction in Ki67 gene expression at 25 to 50 mg/kg, po qd administered for 5 weeks immunohistochemical analysis; type: functional, organism-based; settings: dose 25-50 mg/kg
MKN-45 [18] = test: Inhibition of mitochondrial respiration in human MKN-45 cells assessed as decrease in basal oxygen consumption rate at 1 to 100 nM incubated for 1 hr by Seahorse XF24 extracellular flux analyzer; type: functional, cell-based; settings: dose 1-100 nM
Cytochrome P450 2D6 = Cytochrome P450 2D6 (Homo sapiens, UniProt P10635); test: Inhibition of CYP2D6 in human liver microsome; type: ADME, microsomes
MKN-45 [19] = test: Inhibition of mitochondrial respiration in human MKN-45 cells assessed as oxygen consumption rate incubated for 1 hr by Seahorse XF24 extracellular flux analyzer; type: functional, cell-based; settings: dose 1-100 nM, DDE = dose-dependent effect
[20] = Toxicity in BALB/c nude mouse assessed as body weight loss at 25 to 50 mg/kg, po qd administered for 5 weeks; type: organism-based; settings: in vivo, 840 h, dose 25-50 mg/kg
[21] = target: T1, Signal transducer and activator of transcription 3; test: Inhibition of STAT3 in human AGS cells assessed as downregulation of cyclin D1 expression at 10 to 40 nM incubated for 24 hrs by RT-PCR analysis; type: cell-based; settings: dose 10-40 nM
MGC-803 [22] = test: Antiproliferative activity against human MGC-803 cells assessed as reduction in cell viability incubated for 72 hrs by MTS assay; type: functional, cell-based; settings: MGC-803, 72 h
MKN-45 [23] = test: Inhibition of colony formation in human MKN-45 cells assessed as reduction in number of colonies incubated for 5 to 7 days by crystal violet staining based assay; type: functional, cell-based; settings: dose <= 20.0 nM, time 5-7 day, DDE = dose-dependent effect
[24] = target: T1, Signal transducer and activator of transcription 3; test: Inhibition of STAT3 phosphorylation at Ser727 residue in human MGC-803 cells upto 40 nM by Western blotting analysis; type: cell-based; settings: time <= 24.0 hrs, TDE = time-dependent effect
[25] = target: T1, Signal transducer and activator of transcription 3; test: Inhibition of STAT3 in human AGS cells assessed as downregulation of Survivin expression at 10 to 40 nM incubated for 24 hrs by RT-PCR analysis; type: cell-based; settings: dose 10-40 nM
[26] = Toxicity in BALB/c nude mouse xenografted with human MKN-45 cells assessed as spleen damage at 25 to 50 mg/kg, po qd administered for 5 weeks by H and E staining based analysis; type: organism-based; settings: in vivo, 840 h, dose 25-50 mg/kg
[27] = target: T1, Signal transducer and activator of transcription 3; test: Inhibition of STAT3 in human AGS cells assessed as downregulation of Bcl2 expression at 10 to 40 nM incubated for 24 hrs by RT-PCR analysis; type: cell-based; settings: dose 10-40 nM
[28] = target: T1, Signal transducer and activator of transcription 3; test: Inhibition of STAT3 phosphorylation at Tyr705 residue in human MGC-803 cells upto 40 nM by Western blotting analysis; type: cell-based; settings: time <= 24.0 hrs, TDE = time-dependent effect
MKN-45 [29] = test: Inhibition of mitochondrial respiration in STAT3 knockdown human MKN-45 cells assessed as oxygen consumption rate incubated for 80 mins […]; type: functional, cell-based
[30] = Antiproliferative activity against human HPNE cells assessed as cell viability measured upto 1 uM incubated for 72 hrs by MTS assay; type: toxicity, cell-based; settings: htert-hpne
[31] = AUC (0 to infinity) in ICR mouse plasma at 1 mg/kg, iv measured up to 24 hrs by LC-MS/MS analysis; type: ADME, organism-based; parameters: time < 24 hrs, dose 1 mg/kg, route iv
[32] = Toxicity in […] mouse xenografted with human MKN-45 cells assessed as heart damage at 25 to 50 mg/kg, po qd administered for 5 weeks by H and E staining based analysis; type: organism-based; settings: in vivo, 840 h, dose 25-50 mg/kg
AGS [33] = test: Induction of apoptosis in human AGS cells assessed as early apoptic cells 20 nM incubated for 48 hrs by FITC-annexin V/propidium iodide staining based flow cytometry (reference value: 0.55%); type: functional
AGS [34] = test: Inhibition of colony formation in STAT3 knockdown human AGS cells assessed as reduction in number of colonies incubated for 5 to 7 days by crystal violet staining based assay; type: functional, cell-based; settings: time 5-7 day

T1 sequence (P40763 whole entry): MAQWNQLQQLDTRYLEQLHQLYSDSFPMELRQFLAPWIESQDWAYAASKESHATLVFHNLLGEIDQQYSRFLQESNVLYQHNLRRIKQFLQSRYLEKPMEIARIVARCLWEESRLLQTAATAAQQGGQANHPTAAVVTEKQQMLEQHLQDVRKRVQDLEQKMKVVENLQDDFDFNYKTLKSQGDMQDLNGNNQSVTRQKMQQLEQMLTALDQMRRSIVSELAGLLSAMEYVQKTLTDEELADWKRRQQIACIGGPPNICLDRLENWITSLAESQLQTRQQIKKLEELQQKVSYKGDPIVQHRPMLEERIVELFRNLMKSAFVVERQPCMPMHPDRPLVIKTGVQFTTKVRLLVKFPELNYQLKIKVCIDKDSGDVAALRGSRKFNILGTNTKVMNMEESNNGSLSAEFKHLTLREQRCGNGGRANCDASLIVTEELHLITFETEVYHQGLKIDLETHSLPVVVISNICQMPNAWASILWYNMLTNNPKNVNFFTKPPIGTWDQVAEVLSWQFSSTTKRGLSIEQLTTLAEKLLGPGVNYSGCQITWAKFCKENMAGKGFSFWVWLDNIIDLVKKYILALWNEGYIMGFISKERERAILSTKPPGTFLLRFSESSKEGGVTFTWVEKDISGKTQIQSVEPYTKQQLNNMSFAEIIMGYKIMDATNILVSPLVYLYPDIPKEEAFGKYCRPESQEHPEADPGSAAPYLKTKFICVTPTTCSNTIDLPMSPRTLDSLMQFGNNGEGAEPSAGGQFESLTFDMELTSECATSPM
Cytochrome P450 2C9, sequence (P11712 whole entry): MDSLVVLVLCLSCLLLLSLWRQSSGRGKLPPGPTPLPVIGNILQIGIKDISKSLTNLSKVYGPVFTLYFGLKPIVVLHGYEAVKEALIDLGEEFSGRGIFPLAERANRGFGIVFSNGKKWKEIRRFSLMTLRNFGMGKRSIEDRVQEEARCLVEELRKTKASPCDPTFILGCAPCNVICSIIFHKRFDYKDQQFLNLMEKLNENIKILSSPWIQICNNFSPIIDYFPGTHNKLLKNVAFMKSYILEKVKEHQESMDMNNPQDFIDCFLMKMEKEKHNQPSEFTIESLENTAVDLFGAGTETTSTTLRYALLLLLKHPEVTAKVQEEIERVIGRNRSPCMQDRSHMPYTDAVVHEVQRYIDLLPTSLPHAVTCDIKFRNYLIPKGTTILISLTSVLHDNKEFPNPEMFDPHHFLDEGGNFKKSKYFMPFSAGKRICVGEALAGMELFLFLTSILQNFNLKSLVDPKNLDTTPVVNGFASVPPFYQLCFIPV
Epidermal growth factor receptor, sequence (P00533 whole entry): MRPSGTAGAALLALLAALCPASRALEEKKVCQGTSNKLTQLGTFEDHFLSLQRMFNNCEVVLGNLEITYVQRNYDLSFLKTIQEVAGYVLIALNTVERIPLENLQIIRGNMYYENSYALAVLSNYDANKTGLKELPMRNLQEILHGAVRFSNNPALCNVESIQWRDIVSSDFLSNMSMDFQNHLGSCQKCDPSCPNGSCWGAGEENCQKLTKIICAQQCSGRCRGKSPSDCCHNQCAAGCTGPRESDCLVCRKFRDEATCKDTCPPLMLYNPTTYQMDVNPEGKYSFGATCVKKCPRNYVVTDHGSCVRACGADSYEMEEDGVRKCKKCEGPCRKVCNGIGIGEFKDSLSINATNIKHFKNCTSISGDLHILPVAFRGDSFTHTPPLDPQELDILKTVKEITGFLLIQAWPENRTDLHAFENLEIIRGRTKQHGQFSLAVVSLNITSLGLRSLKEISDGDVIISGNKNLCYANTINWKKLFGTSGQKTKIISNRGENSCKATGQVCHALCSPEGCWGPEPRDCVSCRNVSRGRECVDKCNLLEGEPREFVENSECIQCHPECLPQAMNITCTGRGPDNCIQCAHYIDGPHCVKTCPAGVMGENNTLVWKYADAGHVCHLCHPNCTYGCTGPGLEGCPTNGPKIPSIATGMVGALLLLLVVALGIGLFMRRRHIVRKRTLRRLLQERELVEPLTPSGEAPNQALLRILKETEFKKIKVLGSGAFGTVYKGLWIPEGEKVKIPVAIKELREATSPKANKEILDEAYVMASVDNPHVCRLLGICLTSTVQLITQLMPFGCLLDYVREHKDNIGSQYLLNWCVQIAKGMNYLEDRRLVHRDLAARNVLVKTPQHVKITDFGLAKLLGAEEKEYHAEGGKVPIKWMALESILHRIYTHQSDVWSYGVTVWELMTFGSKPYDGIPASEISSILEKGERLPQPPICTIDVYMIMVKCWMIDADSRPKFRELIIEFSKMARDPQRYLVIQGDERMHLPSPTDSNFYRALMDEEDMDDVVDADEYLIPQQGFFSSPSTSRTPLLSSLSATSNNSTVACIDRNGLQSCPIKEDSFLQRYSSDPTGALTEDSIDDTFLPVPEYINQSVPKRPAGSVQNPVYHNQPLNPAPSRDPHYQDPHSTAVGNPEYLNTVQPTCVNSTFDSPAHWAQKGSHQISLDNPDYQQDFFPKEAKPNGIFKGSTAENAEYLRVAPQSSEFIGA
Tyrosine-protein kinase JAK2, sequence (O60674 whole entry): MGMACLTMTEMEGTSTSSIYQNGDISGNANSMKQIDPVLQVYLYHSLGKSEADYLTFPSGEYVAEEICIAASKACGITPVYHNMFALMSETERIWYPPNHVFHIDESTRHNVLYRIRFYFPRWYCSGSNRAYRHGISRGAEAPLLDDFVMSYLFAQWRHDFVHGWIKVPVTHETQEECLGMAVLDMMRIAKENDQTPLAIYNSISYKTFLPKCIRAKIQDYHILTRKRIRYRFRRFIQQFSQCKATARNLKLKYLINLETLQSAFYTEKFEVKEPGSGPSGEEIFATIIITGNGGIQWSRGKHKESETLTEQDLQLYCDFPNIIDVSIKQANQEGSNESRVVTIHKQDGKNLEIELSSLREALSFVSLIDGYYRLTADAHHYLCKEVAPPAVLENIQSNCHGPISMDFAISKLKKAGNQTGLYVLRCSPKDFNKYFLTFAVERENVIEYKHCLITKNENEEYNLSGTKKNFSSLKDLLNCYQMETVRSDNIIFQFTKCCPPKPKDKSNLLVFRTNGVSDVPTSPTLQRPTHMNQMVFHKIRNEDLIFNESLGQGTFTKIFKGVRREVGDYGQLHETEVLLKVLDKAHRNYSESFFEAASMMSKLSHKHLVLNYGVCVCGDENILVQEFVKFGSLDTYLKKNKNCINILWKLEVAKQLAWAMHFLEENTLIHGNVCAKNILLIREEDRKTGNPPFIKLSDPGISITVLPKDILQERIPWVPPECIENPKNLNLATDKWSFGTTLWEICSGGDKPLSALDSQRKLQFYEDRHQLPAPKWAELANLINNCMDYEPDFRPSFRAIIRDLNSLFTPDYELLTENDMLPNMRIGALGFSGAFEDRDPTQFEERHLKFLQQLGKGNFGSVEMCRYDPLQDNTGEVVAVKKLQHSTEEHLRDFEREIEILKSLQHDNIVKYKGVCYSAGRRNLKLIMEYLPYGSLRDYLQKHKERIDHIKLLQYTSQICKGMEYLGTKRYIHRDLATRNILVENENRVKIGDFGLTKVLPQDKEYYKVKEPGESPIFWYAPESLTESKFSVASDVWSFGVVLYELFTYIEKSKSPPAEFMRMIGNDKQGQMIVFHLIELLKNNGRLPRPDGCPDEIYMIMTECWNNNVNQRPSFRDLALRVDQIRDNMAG
Cytochrome P450 3A4, sequence (P08684 whole entry): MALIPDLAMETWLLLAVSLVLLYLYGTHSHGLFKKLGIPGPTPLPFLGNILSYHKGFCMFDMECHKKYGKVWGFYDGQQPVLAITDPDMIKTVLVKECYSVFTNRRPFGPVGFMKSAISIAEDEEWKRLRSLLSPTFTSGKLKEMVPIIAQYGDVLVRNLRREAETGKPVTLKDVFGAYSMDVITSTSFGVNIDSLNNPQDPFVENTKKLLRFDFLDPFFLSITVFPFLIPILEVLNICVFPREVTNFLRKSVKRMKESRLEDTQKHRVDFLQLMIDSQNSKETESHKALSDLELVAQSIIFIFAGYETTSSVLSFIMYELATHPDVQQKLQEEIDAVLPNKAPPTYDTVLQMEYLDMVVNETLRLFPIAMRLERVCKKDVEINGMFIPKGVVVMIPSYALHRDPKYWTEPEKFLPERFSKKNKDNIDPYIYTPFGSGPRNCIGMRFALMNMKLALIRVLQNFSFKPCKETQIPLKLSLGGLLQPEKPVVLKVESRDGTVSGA
Cytochrome P450 2D6, sequence (P10635 whole entry): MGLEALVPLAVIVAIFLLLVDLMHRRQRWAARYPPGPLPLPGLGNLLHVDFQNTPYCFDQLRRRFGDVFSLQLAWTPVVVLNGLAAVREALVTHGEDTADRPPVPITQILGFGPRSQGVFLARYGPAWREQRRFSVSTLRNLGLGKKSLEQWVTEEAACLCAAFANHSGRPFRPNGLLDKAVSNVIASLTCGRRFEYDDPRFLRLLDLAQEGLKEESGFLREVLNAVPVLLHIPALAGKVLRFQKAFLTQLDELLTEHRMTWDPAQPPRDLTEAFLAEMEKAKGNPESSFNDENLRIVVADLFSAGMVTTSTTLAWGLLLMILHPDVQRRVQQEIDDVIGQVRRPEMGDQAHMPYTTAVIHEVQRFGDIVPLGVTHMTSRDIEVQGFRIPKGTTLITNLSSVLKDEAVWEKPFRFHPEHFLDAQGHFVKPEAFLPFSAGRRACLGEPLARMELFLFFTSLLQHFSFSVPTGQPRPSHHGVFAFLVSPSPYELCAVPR

O=C(c1ccc(-c2noc(-c3ccc(C(F)(F)F)cc3)n2)cc1)N1CCN(Cc2ccc(OCC(F)(F)F)cc2)CC1
inhibition (MKN-45 [1]): Active
IC50 (Cytochrome P450 2C9): 22.9 µM
inhibition (MKN-45 [2]): Active
IC50 [3]: > 10 µM
AUC(0-t) at 24 h [4]: 1730 ng·h/mL
Activity (MKN-45 [5]): 19.6%
clearance [6]: 7.33 mL/min/kg
inhibition [7]: 100%
IC50 (Cytochrome P450 3A4): > 50 µM
IC50 [8]: 0.0247 µM
Ratio IC50 (MGC-803 [9]): 30
Activity (AGS [10]): 3.96%
IC50 [11]: > 10 µM
inhibition (MKN-45 [12]): Active
inhibition [13]: Tde
inhibition [14]: 100%
Kd [15]: 0.0764 µM
inhibition [16]: Active
Activity (MKN-45 [17]): Active
inhibition (MKN-45 [18]): Active
IC50 (Cytochrome P450 2D6): > 50 µM
inhibition (MKN-45 [19]): Dde
Activity [20]: Non-Toxic
inhibition [21]: Active
IC50 (MGC-803 [22]): 0.0087 µM
inhibition (MKN-45 [23]): Dde
inhibition [24]: Tde
inhibition [25]: Active
Activity [26]: Non-Toxic
inhibition [27]: Active
inhibition [28]: Tde
inhibition (MKN-45 [29]): Active
Activity [30]: Non-Toxic
AUC(0-inf) [31]: 2270 ng·h/mL
Activity [32]: Non-Toxic
Activity (AGS [33]): 3.8%
inhibition (AGS [34]): Active

Reference: ChEMBL document CHEMBL5108044, “Discovery of a Novel Potent STAT3 Inhibitor HP590 with Dual p-Tyr705/Ser727 Inhibitory Activity for Gastric Cancer Treatment” (J Med Chem, 2022)
